Source: patent publication US9388449B2, “Monitoring protein trafficking using beta-galactosidase reporter fragment complementation” (DiscoveRx Corporation, priority 2011, dated 2016)
Counter-ions that a name gives are not always drawn.

Experiments:
[1] = biological target: T1, AVPR2 (Arginine vasopressin receptor 2) (Homo sapiens, UniProt P30518); assay: Trafficking of AVPR2 target peptide by complementation; assay type: cell-based
T1 construct: expressed in transfected cells
Source text: (§1) In a model of retinitis, the rhodopsin GPCR was tagged with an ED, and its translocation was studied in response to addition of 9-cis retinol. […] Also, AVPR2 (Arginine vasopressin receptor 2), a GPCR for which antagonists are used therapeutically, was studied with SR49059, a small molecule vasopressin V1a receptor antagonist. […] More than 200 mutations in the AVPR2 gene have been identified in people with nephrogenic diabetes insipidus. Most of these mutations cause the vasopressin V2 receptor protein to be misfolded into an incorrect 3-dimensional shape. Thus the present assay finds particular applicability in identifying compounds that bind to the AVPR2 gene product in the case of a misfolding mutation which occurs in humans.

[2] = biological target: T2, ADRB2 W158A mutant (Homo sapiens, UniProt P07550, W158A); assay: Trafficking assay: β-galactosidase enzyme fragment complementation, ADRB2 W158A-ProLink with endosome-localized EA; assay type: cell-based; settings: compound 10 μM; signal of test well divided by signal of buffer-only control wells
T2 construct: expressed in transfected cells
Source text: The ADRB2 is a G-protein coupled receptor containing seven transmembrane regions. It was been shown that mutation of W158 to alanine can cause retention of the protein in the endoplasmic reticulum. Contacting the receptor with small molecules that bind to ADRB2 results in enhanced movement of the protein to the plasma membrane and endosomal compartments.
The first fusion protein used comprises the target peptide (ADRB2W158A-PK) and the first fragment of complementation assay. This construct includes the W158 to alanine mutation. The second fusion protein used comprises endosome localized protein and the second fragment of complementation assay.
(§2) The cells were lysed and the complemented activity was measured using a chemiluminescent b-galactosidase substrate. The values of each well containing a test compound was divided by the signal obtained from the control wells that received only buffer.

[3] = test system: ADRB2 W158A; assay: Arrestin activity assay; assay type: cell-based; settings: compound 10 μM; signal of test well divided by signal of buffer-only control wells
Method: as §2

[4] = biological target: ADRB2 (Homo sapiens, UniProt P07550); assay: cAMP activity assay (Gs ADRB2); assay type: cell-based; settings: compound 10 μM; signal of test well divided by signal of buffer-only control wells
Method: as §2

[5] = test system: rhodopsin GPCR; assay: Translocation of ED-tagged rhodopsin GPCR by complementation (model of retinitis); assay type: cell-based
Source text: as §1

[6] = biological target: KCNH2 (hERG) mutant, Kv11.1 potassium ion channel (Homo sapiens, UniProt Q12809); settings: KCNH2 mutant-PK cells, overnight, FIG. 5 curve fit
Method: A single-point mutation is introduced in KCNH2. The second fusion protein used comprises plasma membrane localized protein and the second fragment of complementation assay. The second fragment of complementation assay was localized to the plasma membrane by fusing it to PH domain of phospholipase C gamma.
In this experiment, cells expressing the KCNH2 mutant fused to the first fragment of complementation assay (ProLink™ peptide) and the plasma membrane localized EA were treated with a variety of compounds that bind to the ion channel.
Binding of ligand leads to stabilization (“rescue”) and transport of the protein to the membrane.—PLC(PH)-EA anchors to the membrane. […] The assay is run overnight.

[7] = biological target: KCNH2 (hERG) mutant, Kv11.1 potassium ion channel (Homo sapiens, UniProt Q12809, form not given); assay: in vitro

T1 sequence (P30518 whole entry): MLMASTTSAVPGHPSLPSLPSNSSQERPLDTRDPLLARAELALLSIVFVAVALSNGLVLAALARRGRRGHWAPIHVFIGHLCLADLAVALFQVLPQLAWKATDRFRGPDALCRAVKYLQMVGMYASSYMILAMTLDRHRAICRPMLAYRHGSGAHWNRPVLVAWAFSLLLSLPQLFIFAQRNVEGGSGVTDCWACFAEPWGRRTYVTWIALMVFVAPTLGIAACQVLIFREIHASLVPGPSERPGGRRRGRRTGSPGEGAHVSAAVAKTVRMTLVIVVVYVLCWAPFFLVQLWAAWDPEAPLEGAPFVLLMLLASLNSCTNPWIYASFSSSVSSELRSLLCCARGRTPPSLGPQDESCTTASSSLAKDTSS

Compound	Trafficking 5-EA ADRB2 S/B [2]	Arrestin W158A S/B [3]	cAMP Gs ADRB2 S/B [4]	other results
COc1ccc(S(=O)(=O)N2c3ccc(Cl)cc3[C@](O)(c3ccccc3Cl)[C@@H]2C(=O)N2CCC[C@H]2C(N)=O)cc1OC [SR49059]				dose response of AVPR2 trafficking to compound (result in words) [1]: dose response curve was obtained
COc1ccccc1N1CCN(CC(O)COc2cccc3ccccc23)CC1.Cl.Cl (stereo not drawn) [Naftopidil 2HCl]	6.8	1.0	1.0	
CC(C)(C)NCC(O)COc1cccc2[nH]c(C#N)cc12.CC(C)(C)NCC(O)COc1cccc2[nH]c(C#N)cc12.O=C(O)/C=C/C(=O)O (stereo not drawn) [(—)-Cyanopindolol hemifumarate]	17.1	1.0	1.8	
CC1=C(/C=C/C(C)=C\C=C\C(C)=C\CO)C(C)(C)CCC1 [9-cis retinol]				translocation of ED-tagged rhodopsin in response to compound (result in words) [5]: dose-response curve showed sensitive results
CCC(NC(C)C)C(O)c1ccc(O)c2[nH]c(=O)ccc12 (stereo not drawn) [Procaterol HCl]	78.2	21.3	15.2	
CC(C)NCC(O)COc1cccc2ccccc12 (stereo not drawn) [Propanolol HCl]		0.9		
CC(C)(C)NC[C@H](O)COc1nsnc1N1CCOCC1.O=C(O)/C=C\C(=O)O [(S)-Timolol maleate]		0.9		
O=C(CCCN1CCC(O)(c2ccc(Cl)cc2)CC1)c1ccc(F)cc1 [Haloperidol]				BOTTOM [6]: 7500; HILLSLOPE [6]: 0.5120; LOGEC50 [6]: −1.815; TOP [6]: 537564; EC50 [7]: 15.3 mM
